From patent US7196112B2, “Cell adhesion inhibitors” (Biogen Idec MA Inc., priority 2004, dated 2007)

Key:
[1] = test system: lymphocyte count; experiment: Lymphocyte counts following inhibitor treatment (lymphocytosis); type: in vivo, rat; conditions: 30 mg/kg s.c., single dose
Method: Female Lewis rats were injected with a single dose of either compound H (1 mg/kg, s.c in PBS), or compound R (30 mg/kg, s.c., in TRIS/lactose) or with their respective vehicles at time 0. At each timepoint, 0.3 mL blood from triplicate animals was drawn from the jugular vein without anesthesia and collected into Capiject purple-top microtainer tubes containing EDTA (Terumo Medical Corporation #T-MQK). […] samples were analyzed for lymphocyte count using an Abbott CellDyn 3500 cell analyzer. Blood samples from the compound H-treated animals were drawn at 4 hours, 8 hours, 12 hours, and on days 1, 2, 3, 4, 5, 6, 7, 8, and 9 and for the compound R-treated animals after 2, 6, 24, and 48 h.
Administration of compounds R and H to rats produced an α4β1-integrin dependent lymphocytosis that was sustained as long as sufficient concentrations of the inhibitors were maintained in circulation. From previous studies >90% of α4β1 receptors are estimated to be occupied to maintain lymphocytosis and therefore a target concentration of greater than or equal to 10 ng/mL compound needs to be maintained (see Leone, D. R., et al. (2003) J. Pharmacol. Exp. Ther. 305:1150–1162). […] A 2–3 fold increase in lymphocyte levels was observed. […] Elevated lymphocyte levels were maintained for 6 days. By day 9 lymphocyte levels had returned to normal. […]

[2] = test system: EAE; experiment: Rat EAE model induced with myelin basic protein peptide; type: in vivo; conditions: daily 30 mg/kg s.c.
[3] = molecular target: T1, α4β1 (Homo sapiens, UniProt P05556+P13612); experiment: Kinetic binding to α4β1 on Jurkat cells, competition with 35S-B as probe for free α4β1; parameters: endogenous in cells; host or cells: Jurkat human T-cell line; conditions: for koff: read-out: koff/10^−4; for kon: read-out: kon/10^6; for Kd: calculated from on- and off-rate constants
T1 sequence (P13612 34-1032): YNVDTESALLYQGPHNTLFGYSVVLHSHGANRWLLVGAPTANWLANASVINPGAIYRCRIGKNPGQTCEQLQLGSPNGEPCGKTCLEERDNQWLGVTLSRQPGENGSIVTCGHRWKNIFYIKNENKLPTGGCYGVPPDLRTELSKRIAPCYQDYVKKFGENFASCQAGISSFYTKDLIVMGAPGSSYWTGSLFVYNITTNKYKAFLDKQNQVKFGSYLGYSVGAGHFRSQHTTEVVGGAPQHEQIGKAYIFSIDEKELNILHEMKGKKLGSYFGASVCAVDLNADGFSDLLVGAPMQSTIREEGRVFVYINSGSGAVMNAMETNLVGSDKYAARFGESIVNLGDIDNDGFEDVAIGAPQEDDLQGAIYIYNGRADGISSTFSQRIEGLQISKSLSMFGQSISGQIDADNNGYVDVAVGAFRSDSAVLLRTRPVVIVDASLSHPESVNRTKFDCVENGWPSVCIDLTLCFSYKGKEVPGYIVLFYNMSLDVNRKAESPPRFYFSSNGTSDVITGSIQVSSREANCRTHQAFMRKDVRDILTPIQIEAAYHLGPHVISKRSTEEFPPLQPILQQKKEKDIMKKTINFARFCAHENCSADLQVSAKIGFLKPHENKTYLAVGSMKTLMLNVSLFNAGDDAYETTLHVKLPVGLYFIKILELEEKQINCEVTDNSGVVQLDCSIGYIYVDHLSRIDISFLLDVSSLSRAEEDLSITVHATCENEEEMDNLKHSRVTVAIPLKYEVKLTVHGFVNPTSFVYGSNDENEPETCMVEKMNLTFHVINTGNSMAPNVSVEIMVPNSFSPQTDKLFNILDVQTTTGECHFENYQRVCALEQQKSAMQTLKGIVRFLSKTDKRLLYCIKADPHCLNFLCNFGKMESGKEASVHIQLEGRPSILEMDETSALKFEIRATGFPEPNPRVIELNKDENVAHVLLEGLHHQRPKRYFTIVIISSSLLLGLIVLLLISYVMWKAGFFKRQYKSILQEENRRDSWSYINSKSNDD
T1 sequence (P05556 21-798): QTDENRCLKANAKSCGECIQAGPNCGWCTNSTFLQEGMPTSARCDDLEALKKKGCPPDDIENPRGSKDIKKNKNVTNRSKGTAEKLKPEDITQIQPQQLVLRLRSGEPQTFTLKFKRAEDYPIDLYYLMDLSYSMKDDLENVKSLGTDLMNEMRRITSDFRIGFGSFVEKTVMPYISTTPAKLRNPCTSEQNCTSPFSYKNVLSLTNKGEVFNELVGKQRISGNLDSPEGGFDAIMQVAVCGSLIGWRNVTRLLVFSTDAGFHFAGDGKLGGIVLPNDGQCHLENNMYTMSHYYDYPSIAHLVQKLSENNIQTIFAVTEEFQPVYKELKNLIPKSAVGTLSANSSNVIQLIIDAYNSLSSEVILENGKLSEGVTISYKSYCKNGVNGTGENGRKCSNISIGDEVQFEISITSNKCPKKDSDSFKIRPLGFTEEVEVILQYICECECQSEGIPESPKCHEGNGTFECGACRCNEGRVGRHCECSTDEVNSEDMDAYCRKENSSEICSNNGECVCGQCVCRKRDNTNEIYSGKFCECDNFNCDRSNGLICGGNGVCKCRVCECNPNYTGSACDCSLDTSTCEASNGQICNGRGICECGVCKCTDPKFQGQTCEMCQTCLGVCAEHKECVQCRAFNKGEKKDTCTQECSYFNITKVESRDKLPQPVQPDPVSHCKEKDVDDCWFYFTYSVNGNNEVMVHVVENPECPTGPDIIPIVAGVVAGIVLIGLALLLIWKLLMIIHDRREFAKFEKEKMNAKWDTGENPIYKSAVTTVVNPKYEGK
Method: All cells were periodically monitored for high integrin surface expression by FACS analysis. The binding of the various inhibitors to α4β1 were assessed on Jurkat cells by competition using radioactive ^35S-B as a reporter for a 1 occupancy. Jurkat cells were pelleted by centrifugation, washed two times with TBS (50 mM Tris HCl, 150 mM NaCl, 0.1% bovine serum albumin, 2 mM glucose, 10 mM HEPES pH 7.4), suspended at approximately 2×10^6 cells/mL in TBS, and counted using a Neubauer hemocytometer. The cells were further diluted 2×10^6 cells/mL with TBS containing 1 mM CaCl2 and 1 mM MgCl2 and treated with serial dilutions of test compound for 1 hour, and then 5 nM ^35S-B, an amount sufficient to bind all unoccupied receptors, was added for 10 minutes before measuring the bound counts. The cells were then pelleted by centrifugation, resuspended in 100 μL of TBS plus Mn^2+, and transferred to a scintillation vial containing 2.9 mL of ScintiVerse II (Fisher Scientific). Cell-associated radioactivity was quantified by scintillation counting. All studies were performed in siliconized 1.5 mL eppendorf tubes with a standard 1 mL sample volume. Each condition was tested in at least two independent studies. Non-specific binding of ^35S-B to cells was assessed at each cell density and ^35S-B concentration in TBS but in the absence of added metal ion. Specific counts bound were calculated by subtracting non specific counts from total counts bound. Counts bound under these conditions measures integrin that is not occupied by the test compound and is therefore free to bind the ^35S-B. The competition format was also used for kinetic binding studies. Binding and dissociation constants were calculated from α4β1 that remained free to bind the ^35S-B after treatment with test compound.
The affinities of the PEGylated inhibitors for α4β1 were calculated from association and disassociation rate constants using a kinetic analysis. For these studies, Jurkat cells expressing α4β1 (75,000 copies/cell) were treated with the inhibitors and then ^35S-B was added as a probe to detect free α4β1. The levels of bound inhibitor were calculated from a measure of total ^35S-B bound in the absence of added inhibitor and counts bound following inhibitor treatment.

[4] = molecular target: T1, α4β1; experiment: Equilibrium binding on Jurkat cells, competition with 35S-B as reporter
Method: The α4β1-expressing Jurkat human T-cell line (a gift from S. Burakoff, Dana Farber Cancer Institute, Boston, Mass.), and the α4β7-expressing human B-cell line, JY (American Type Tissue Collection, Rockville, Md.) were maintained in culture at 37° C. in RPMI-1640 medium supplemented with 10% fetal bovine serum (FBS). K562 cell lines transfected with either the human α1-integrin chain (Phil Gotwells, Biogen, Inc) or with the human α2 integrin chain (a gift from M. Hemler, Dana Farber Cancer Institute, Boston, Mass.) were maintained in RPMI-1640 medium supplemented with 10% FBS and 1 mg/mL G418. All cells were periodically monitored for high integrin surface expression by FACS analysis. The binding of the various inhibitors to α4β1 were assessed on Jurkat cells by competition using radioactive ^35S-B as a reporter for a 1 occupancy. Jurkat cells were pelleted by centrifugation, washed two times with TBS (50 mM Tris HCl, 150 mM NaCl, 0.1% bovine serum albumin, 2 mM glucose, 10 mM HEPES pH 7.4), suspended at approximately 2×10^6 cells/mL in TBS, and counted using a Neubauer hemocytometer. The cells were further diluted 2×10^6 cells/mL with TBS containing 1 mM CaCl2 and 1 mM MgCl2 and treated with serial dilutions of test compound for 1 hour, and then 5 nM ^35S-B, an amount sufficient to bind all unoccupied receptors, was added for 10 minutes before measuring the bound counts. The cells were then pelleted by centrifugation, resuspended in 100 μL of TBS plus Mn^2+, and transferred to a scintillation vial containing 2.9 mL of ScintiVerse II (Fisher Scientific). Cell-associated radioactivity was quantified by scintillation counting. All studies were performed in siliconized 1.5 mL eppendorf tubes with a standard 1 mL sample volume. Each condition was tested in at least two independent studies. Non-specific binding of ^35S-B to cells was assessed at each cell density and ^35S-B concentration in TBS but in the absence of added metal ion. Specific counts bound were calculated by subtracting non specific counts from total counts bound. Counts bound under these conditions measures integrin that is not occupied by the test compound and is therefore free to bind the ^35S-B. The competition format was also used for kinetic binding studies. Binding and dissociation constants were calculated from α4β1 that remained free to bind the ^35S-B after treatment with test compound.
The affinities of the PEGylated inhibitors for α4β1 were calculated from association and disassociation rate constants using a kinetic analysis. For these studies, Jurkat cells expressing α4β1 (75,000 copies/cell) were treated with the inhibitors and then ^35S-B was added as a probe to detect free α4β1. The levels of bound inhibitor were calculated from a measure of total ^35S-B bound in the absence of added inhibitor and counts bound following inhibitor treatment. […] IC50 values were calculated from equilibrium binding studies on Jurkat cells through competition using ^35S-B as a reporter in buffer containing 1 mM Ca^2+ and 1 mM Mg^2+.
Second, the effect of protein binding on the affinity of the PEGylated inhibitors for α4β1 on Jurkat cells was evaluated from equilibrium binding measurements.

[5] = molecular target: T2, α2β1 (Homo sapiens, UniProt P05556+P17301); experiment: α2β1/collagen I cell adhesion assay (K562 transfected with human α2 integrin chain); type: cell-based; conditions: adhesion format, 1 mM MnCl2
T2 construct: expressed in transfected cells; host or cells: K562 cells transfected with human α2 integrin chain (gift from M. Hemler)
T2 sequence (P17301 30-1181): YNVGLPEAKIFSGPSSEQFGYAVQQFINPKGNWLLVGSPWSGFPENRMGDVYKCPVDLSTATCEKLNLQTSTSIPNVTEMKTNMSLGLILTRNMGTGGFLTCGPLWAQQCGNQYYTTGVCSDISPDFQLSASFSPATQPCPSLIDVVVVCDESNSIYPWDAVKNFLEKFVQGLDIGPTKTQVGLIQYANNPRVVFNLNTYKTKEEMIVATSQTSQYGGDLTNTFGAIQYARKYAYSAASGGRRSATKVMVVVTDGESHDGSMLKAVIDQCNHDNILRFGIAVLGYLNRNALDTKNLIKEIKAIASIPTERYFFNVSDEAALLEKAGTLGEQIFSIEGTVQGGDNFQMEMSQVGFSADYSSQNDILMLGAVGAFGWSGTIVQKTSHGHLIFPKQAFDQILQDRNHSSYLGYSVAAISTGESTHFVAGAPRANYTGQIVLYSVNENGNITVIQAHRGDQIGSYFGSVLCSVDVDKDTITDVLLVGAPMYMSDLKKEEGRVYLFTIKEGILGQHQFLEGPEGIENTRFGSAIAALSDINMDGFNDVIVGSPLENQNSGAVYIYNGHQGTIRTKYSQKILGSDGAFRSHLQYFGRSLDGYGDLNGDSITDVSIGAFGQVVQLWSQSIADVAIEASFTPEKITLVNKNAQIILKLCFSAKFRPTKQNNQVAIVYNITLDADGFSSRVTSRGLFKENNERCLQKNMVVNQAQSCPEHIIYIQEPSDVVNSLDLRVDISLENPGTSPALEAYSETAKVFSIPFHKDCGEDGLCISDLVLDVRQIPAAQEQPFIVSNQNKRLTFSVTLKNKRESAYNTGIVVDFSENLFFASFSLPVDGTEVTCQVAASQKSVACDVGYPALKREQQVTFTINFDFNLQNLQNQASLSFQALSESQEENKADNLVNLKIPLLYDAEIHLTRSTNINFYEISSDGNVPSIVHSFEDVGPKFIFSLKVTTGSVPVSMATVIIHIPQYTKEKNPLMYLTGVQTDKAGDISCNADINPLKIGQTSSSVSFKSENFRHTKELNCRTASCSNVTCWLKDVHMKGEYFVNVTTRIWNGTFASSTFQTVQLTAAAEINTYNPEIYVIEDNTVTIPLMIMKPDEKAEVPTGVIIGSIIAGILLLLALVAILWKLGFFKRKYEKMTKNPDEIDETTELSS
T2 sequence (P05556 21-798): as the sequence (P05556 21-798) above
Method: (§1) The ability of test compounds to block α2β1/collagen I and α1β1/collagen IV interactions were evaluated in cell adhesion assays. Collagen I and collagen IV were immobilized onto a 96-well Corning Easy Wash plate (Corning Cat. No. 25801). Human integrin-expressing cell lines (2×10^5/well) were labeled with a fluorescent compound, 2 μM BCECF-AM (Molecular Probes, Eugene, Oreg., Cat# B1150), and added with or without test compounds. After 30 minutes, the plates were washed, and bound cells quantified in a Cytofluor fluorescence plate reader. The assay buffer was TRIS-buffered saline (TBS: 24 mM TRIS, 137 mM NaCl, 2.7 mM KCl, 2 mM glucose, 0.1% BSA, pH 7.4), containing 1 mM MnCl2. The specificity of binding was controlled for using integrin specific neutralizing monoclonal antibodies. The antibodies were run at 10 μg/mL on each day of the assay and were as follows: anti-α4β1, mAb HP1/2 (Biogen); anti-α2β1, mAb 26G8 (Biogen); and α1β1, mAb AJH10 (Biogen).
(§2) The results presented in Table 3 summarize the integrin selectivity for PEGylated inhibitors. The selectivity of the PEGylated inhibitors for the four integrins indicated were tested in adhesion formats for α1β1 and α2β1, and by direct binding for α4β7. Serial dilutions of each compound were tested and IC50 values calculated from the concentration dependence of the inhibition curves. […]

[6] = molecular target: α1β1 (Homo sapiens, UniProt P05556+P56199); experiment: α1β1/collagen IV cell adhesion assay (K562 transfected with human α1-integrin chain); type: cell-based; conditions: adhesion format, 1 mM MnCl2
Sequence of α1β1 (P56199 29-1179): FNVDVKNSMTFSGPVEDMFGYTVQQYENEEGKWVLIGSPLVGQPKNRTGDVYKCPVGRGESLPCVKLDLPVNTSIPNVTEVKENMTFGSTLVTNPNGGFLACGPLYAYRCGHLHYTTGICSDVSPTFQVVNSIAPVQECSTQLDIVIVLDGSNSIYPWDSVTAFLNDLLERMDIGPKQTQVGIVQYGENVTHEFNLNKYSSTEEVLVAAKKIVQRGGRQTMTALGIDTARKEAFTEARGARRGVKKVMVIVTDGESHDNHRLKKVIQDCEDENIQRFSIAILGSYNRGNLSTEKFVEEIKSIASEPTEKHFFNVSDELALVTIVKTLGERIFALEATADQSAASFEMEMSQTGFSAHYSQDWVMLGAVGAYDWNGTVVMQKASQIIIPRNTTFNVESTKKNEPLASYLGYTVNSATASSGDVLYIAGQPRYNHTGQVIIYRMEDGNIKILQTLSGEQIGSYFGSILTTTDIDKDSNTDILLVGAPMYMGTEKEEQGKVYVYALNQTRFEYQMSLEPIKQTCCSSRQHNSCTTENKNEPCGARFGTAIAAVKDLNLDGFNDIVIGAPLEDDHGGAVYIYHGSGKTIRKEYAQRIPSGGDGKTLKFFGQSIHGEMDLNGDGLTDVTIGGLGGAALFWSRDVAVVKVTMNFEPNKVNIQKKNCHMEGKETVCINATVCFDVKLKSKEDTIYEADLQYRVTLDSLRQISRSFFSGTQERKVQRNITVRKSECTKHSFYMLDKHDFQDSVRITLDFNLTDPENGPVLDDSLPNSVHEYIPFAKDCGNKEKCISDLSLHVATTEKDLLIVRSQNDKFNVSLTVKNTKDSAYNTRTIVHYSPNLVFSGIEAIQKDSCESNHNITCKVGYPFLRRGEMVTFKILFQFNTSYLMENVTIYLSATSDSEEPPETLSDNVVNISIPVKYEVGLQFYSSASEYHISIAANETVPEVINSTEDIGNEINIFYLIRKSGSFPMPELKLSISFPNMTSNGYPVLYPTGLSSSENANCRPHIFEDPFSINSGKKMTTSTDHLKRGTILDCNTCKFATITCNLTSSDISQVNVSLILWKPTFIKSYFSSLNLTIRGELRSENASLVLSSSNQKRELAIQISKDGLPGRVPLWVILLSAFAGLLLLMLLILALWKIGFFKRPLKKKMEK
Sequence of α1β1 (P05556 21-798): as the sequence (P05556 21-798) above
Method: as §1, §2

[7] = molecular target: T1, α4β1; experiment: VCAM-Ig direct binding assay (DBA), Jurkat cells
Excerpt: A direct binding assay may also be employed to quantitate the inhibitory activity of the compounds. In this assay, a VCAM-IgG fusion protein containing the first two immunoglobulin domains of VCAM (D1D2) attached above the hinge region of an IgG1 molecule (“VCAM 2D-IgG”), is conjugated to a marker enzyme, such as alkaline phosphatase (“AP”). […] The conjugation of that fusion to a marker enzyme is achieved by cross-linking methods well-known in the art.
The VCAM-IgG enzyme conjugate is then placed in the wells of a multi-well filtration plate, such as that contained in the Millipore Multiscreen Assay System (Millipore Corp., Bedford, Mass.). Varying concentrations of the test inhibitory compound are then added to the wells followed by addition of VLA-4-expressing cells. The cells, compound and VCAM-IgG enzyme conjugate are mixed together and allowed to incubate at room temperature. Following incubation, the wells are vacuum drained, leaving behind the cells and any bound VCAM. Quantitation of bound VCAM is determined by adding an appropriate calorimetric substrate for the enzyme conjugated to VCAM-IgG and determining the amount of reaction product. Decreased reaction product indicates increased binding inhibitory activity.
Samples were also evaluated for function using the VCAM-Ig direct binding assay. Details for the construction of the VCAM-Ig animal cell expression vector, the generation of a Chinese hamster ovary (CHO) cell line expressing VCAM-Ig, conjugation of the VCAM-Ig to alkaline phosphatase, and the development of a direct binding assay for characterizing α4β1 and α4β7 binding to VCAM-Ig were as previously described (see Lobb, R. R., et al. (1995) Cell Adhes. Commun. 3:385–397).
For these studies, a series of compounds based on compound E containing 0.35, 2, 5, 20, 30, and 50 kDa-mPEG was synthesized and tested for binding to α4β1 on Jurkat cells with VCAM-Ig as a reporter (see methods).

[8] = IC50, buffer with 1 mM Ca2+ and 1 mM Mg2+, no plasma

For `Cc1ccccc1NC(=O)Nc1ccc(CC(=O)N(C)[C@@H](CC(C)C)C(=O)NCC[C@H](NC(=O)[C@@H]2CCCN2S(=O)(=O)c2cc(Cl)cc(Cl)c2)C(=O)O)cc1` [Compound R, 2S-{[1-(3,5-dichloro-benzenesulfonyl)-pyrrolidine-2S-carbonyl]-amino}-4-[4-methyl-2S-(methyl-{2-[4-(3-o-tolyl-ureido)-phenyl]-acetyl}-amino)-pentanoylamino]-butyric acid], which “day by which lymphocyte levels returned to normal” value [1] is on record?
Its value is at most 2 days.

And the duration of lymphocytosis [1]?
The duration of lymphocytosis was “one”.

And the “mean paralytic score reached” value [2]?
Its value is 3.0.

What about the koff ([3]; Jurkat cells, 35S-B probe) of the same molecule?
Its koff is 1.2e-05 s⁻¹.

And the kon ([3]; Jurkat cells, 35S-B probe)?
Its kon is 1.5e+06 M⁻¹ s⁻¹.

And the Kd ([3]; Jurkat cells)?
The Kd was 0.009 nM.

What about the IC50 ([4]; IC50(HP), 100% human plasma) of the same molecule?
The IC50 was 0.8 nM.

And the IC50 [4, 8]?
Its IC50 is 0.15 nM.

`Cc1ccccc1NC(=O)Nc1ccc(CC(=O)N(C)[C@@H](CC(C)C)C(=O)NCC[C@H](NC(=O)C2CCCN2S(=O)(=O)c2ccccc2)C(=O)O)cc1` (stereo partly drawn) [Compound B, 2S-[(1-benzenesulfonyl-pyrrolidine-2S-carbonyl)-amino]-4-[4-methyl-2S-(methyl-{2-[4-(3-o-tolyl-ureido)-phenyl]-acetyl}-amino)-pentanoylamino]-butyric acid] was tested. Which IC50 [5] did it give?
The IC50 was 5000 nM.

What about the IC50 [6] of the same molecule?
Its IC50 is over 10000 nM.

What about the IC50 ([7]; DBA IC50 100% rat plasma, 100% rat plasma) of the same molecule?
The IC50 was 13 nM.

What about the IC50 ([7]; DBA IC50 Ca2+Mg2+, Ca2+Mg2+) of the same molecule?
The IC50 was 2 nM.

What about the IC50 ([7]; DBA IC50 Mn2+, Mn2+) of the same molecule?
Its IC50 is 1.2 nM.

What about the “% bound Ca2+Mg2+ 30 min” value ([3]; Ca2+Mg2+, 30 min) of the same molecule?
Its value is over 90%.

And the On-rate ([3]; Jurkat cells, 35S-B probe)?
Its On-rate is 4e+06 M⁻¹ s⁻¹.

And the koff ([3]; Jurkat cells, 35S-B probe)?
The koff was 1.9e-05 s⁻¹.

And the kon ([3]; Jurkat cells, 35S-B probe)?
Its kon is 4e+06 M⁻¹ s⁻¹.

And the “% bound Mn2+ 60 min” value ([3]; Mn2+, 60 min)?
The value was over 95%.

What about the Kd ([3]; Jurkat cells) of the same molecule?
The Kd was 0.005 nM.

What about the IC50 ([4]; IC50(HP), 100% human plasma) of the same molecule?
The IC50 was 1.5 nM.

What about the IC50 [4, 8] of the same molecule?
The IC50 was 0.21 nM.
